Key:
[1] = system: surinam grass; assay: Test B pre/postemergence surinam grass; type: in vivo, Brachiaria decumbens
In short: (§1)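 Response is a visual 0-to-10 score relative to untreated plants, where 0 means no effect and 10 means complete control, taken twelve to sixteen days after application. Treatments went onto soil at planting and onto foliage of 1- to 4-leaf plants, using a surfactant-containing non-phytotoxic solvent.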

[2] = system: smallflower flatsedge; assay: Test B flood test smallflower flatsedge; type: in vivo, Cyperus difformis
In short: (§2)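 Flood test on plants grown to the 2-leaf stage; treated plants kept in greenhouse twelve to sixteen days, then visually rated against controls on a 0 (no effect) to 10 (complete control) scale.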

[3] = system: soybean; assay: Test B pre/postemergence soybean; type: in vivo, Glycine max
In short: as §1

[4] = system: sugar beet; assay: Test B pre/postemergence sugar beet; type: in vivo, Beta vulgaris
In short: as §1

[5] = system: corn; assay: Test B pre/postemergence corn; type: in vivo, Zea mays
In short: as §1

[6] = system: wild oat; assay: Test B pre/postemergence wild oat; type: in vivo, Avena fatua
In short: as §1

[7] = system: rape; assay: Test B pre/postemergence rape; type: in vivo, Brassica napus
In short: as §1

[8] = system: bedstraw; assay: Test B pre/postemergence bedstraw; type: in vivo, Galium aparine
In short: as §1

[9] = system: duck salad; assay: Test B flood test duck salad; type: in vivo, Heteranthera limosa
In short: as §2

[10] = system: morningglory; assay: Test B pre/postemergence morningglory; type: in vivo, Ipomoea hederacea
In short: as §1

[11] = system: pigweed; assay: Test B pre/postemergence pigweed; type: in vivo, Amaranthus retroflexus
In short: as §1

[12] = system: bamyardgrass; assay: Test B flood test barnyardgrass; type: in vivo, Echinochloa crus-galli
In short: as §2

[13] = system: crabgrass; assay: Test B pre/postemergence crabgrass; type: in vivo, Digitaria sanguinalis
In short: as §1

[14] = system: rice; assay: Test B flood test rice; type: in vivo, Oryza sativa
In short: as §2

[15] = system: cocklebur; assay: Test B pre/postemergence cocklebur; type: in vivo, Xanthium strumarium
In short: as §1

[16] = system: velvetleaf; assay: Test B pre/postemergence velvetleaf; type: in vivo, Abutilon theophrasti
In short: as §1

[17] = Preemergence, Rate 62 g/ha, scale of 0 to 10 where 0 is no effect and 10 is complete control
[18] = Preemergence, Rate 500 g/ha, scale of 0 to 10 where 0 is no effect and 10 is complete control
[19] = Rate 62 g/ha, Postemergence, scale of 0 to 10 where 0 is no effect and 10 is complete control
[20] = Rate 125 g/ha, Preemergence, scale of 0 to 10 where 0 is no effect and 10 is complete control
[21] = Rate 500 g/ha, Postemergence, scale 0 to 10, 0 no effect, 10 complete control
[22] = Rate 62 g/ha, headed Pre-emergence (flood test species), scale 0 to 10 (0 no effect, 10 complete control)
[23] = Rate 125 g/ha, Pre-emergence, flood test species, scale 0 to 10 where 0 is no effect and 10 is complete control
[24] = Rate 250 g/ha, Pre-emergence, flood-test species, scale 0 to 10, 0 is no effect, 10 is complete control
[25] = Rate 500 g/ha, Pre-emergence, flood test species, scale 0 to 10 (0 no effect, 10 complete control)
[26] = Preemergence, Rate 250 g/ha, scale of 0 to 10 where 0 is no effect and 10 is complete control
[27] = Rate 125 g/ha, Postemergence, scale 0 to 10

## CC(C)N(C(=O)n1oc(=O)n(-c2cccnc2)c1=O)c1ccccc1 [Compound 235]
[1]; [17]
  B. signalgrass plant response rating: 0
[1]; Preemergence, Rate 250 g/ha, scale 0 to 10, 0 is no effect, 10 is complete control
  B. signalgrass plant response rating: 0
[1]; [18]
  Plant response rating, B. signalgrass: 0
[1]; [19]
  B. signalgrass plant response rating: 0
[1]; Rate 125 g/ha, Postemergence, scale 0 (no effect) to 10 (complete control)
  B. signalgrass plant response rating: 0
[1]; [20]
  B. signalgrass plant response rating: 0
[1]; Rate 250 g/ha, Postemergence
  Plant response rating (0 to 10; 0 is no effect, 10 is complete control), B. signalgrass: 0
[1]; [21]
  B. signalgrass plant response rating: 0
[2]; [22]
  S. Flatsedge plant response rating: 0
[2]; [23]
  S. Flatsedge plant response rating: 0
[2]; [24]
  S. Flatsedge plant response rating: 0
[2]; [25]
  S. Flatsedge plant response rating: 0
[3]; [17]
  Soybean plant response rating: 0
[3]; [26]
  Soybean plant response rating: 0
[3]; [18]
  Plant response rating, Soybean: 0
[3]; [19]
  Soybean plant response rating: 0
[3]; [27]
  Soybean plant response rating: 0
[3]; [20]
  Soybean plant response rating: 0
[3]; Rate 250 g/ha, Postemergence
  Plant response rating (0 to 10; 0 is no effect, 10 is complete control), Soybean: 0
[3]; [21]
  Soybean plant response rating: 0
[4]; [17]
  Sugarbeets plant response rating: 0
[4]; [26]
  Sugarbeets plant response rating: 0
[4]; [18]
  Plant response rating, Sugarbeets: 0
[4]; [19]
  Sugarbeets plant response rating: 0
[4]; [27]
  Sugarbeets plant response rating: 0
[4]; [20]
  Sugarbeets plant response rating: 0
[4]; Rate 250 g/ha, Postemergence
  Plant response rating (0 to 10; 0 is no effect, 10 is complete control), Sugarbeets: 0
[4]; [21]
  Sugarbeets plant response rating: 0
[5]; [17]
  Corn plant response rating: 0
[5]; [26]
  Corn plant response rating: 0
[5]; [18]
  Plant response rating, Corn: 0
[5]; [19]
  Corn plant response rating: 0
[5]; [27]
  Corn plant response rating: 0
[5]; [20]
  Corn plant response rating: 0
[5]; Rate 250 g/ha, Postemergence
  Plant response rating (0 to 10; 0 is no effect, 10 is complete control), Corn: 0
[5]; [21]
  Corn plant response rating: 0
[6]; [17]
  Wild oats plant response rating: 0
[6]; [26]
  Wild oats plant response rating: 0
[6]; [18]
  Plant response rating, Wild oats: 0
[6]; [19]
  Wild oats plant response rating: 0
[6]; [27]
  Wild oats plant response rating: 0
[6]; [20]
  Wild oats plant response rating: 0
[6]; Rate 250 g/ha, Postemergence
  Plant response rating (0 to 10; 0 is no effect, 10 is complete control), Wild oats: 0
[6]; [21]
  Wild oats plant response rating: 0
[7]; [17]
  Rape plant response rating: 0
[7]; [26]
  Rape plant response rating: 0
[7]; [18]
  Plant response rating, Rape: 0
[7]; [19]
  Rape plant response rating: 0
[7]; [27]
  Rape plant response rating: 0
[7]; [20]
  Rape plant response rating: 0
[7]; Rate 250 g/ha, Postemergence
  Plant response rating (0 to 10; 0 is no effect, 10 is complete control), Rape: 0
[7]; [21]
  Rape plant response rating: 0
[8]; [17]
  Bedstraw plant response rating: 0
[8]; [26]
  Bedstraw plant response rating: 0
[8]; [18]
  Plant response rating, Bedstraw: 0
[8]; [19]
  Bedstraw plant response rating: 0
[8]; [27]
  Bedstraw plant response rating: 0
[8]; [20]
  Bedstraw plant response rating: 0
[8]; Rate 250 g/ha, Postemergence
  Plant response rating (0 to 10; 0 is no effect, 10 is complete control), Bedstraw: 0
[8]; [21]
  Bedstraw plant response rating: 0
[9]; [22]
  Ducksalad plant response rating: 0
[9]; [23]
  Ducksalad plant response rating: 0
[9]; [24]
  Ducksalad plant response rating: 0
[9]; [25]
  Ducksalad plant response rating: 0
[10]; [17]
  Morningglory plant response rating: 0
[10]; [26]
  Morningglory plant response rating: 0
[10]; [18]
  Plant response rating, Morningglory: 0
[10]; [19]
  Morningglory plant response rating: 2
[10]; [27]
  Morningglory plant response rating: 2
[10]; [20]
  Morningglory plant response rating: 0
[10]; Rate 250 g/ha, Postemergence
  Plant response rating (0 to 10; 0 is no effect, 10 is complete control), Morningglory: 6
[10]; [21]
  Morningglory plant response rating: 7
[11]; [17]
  Redroot pigweed plant response rating: 0
[11]; [26]
  Redroot pigweed plant response rating: 0
[11]; [18]
  Plant response rating, Redroot pigweed: 0
[11]; [19]
  Redroot pigweed plant response rating: 0
[11]; [27]
  Redroot pigweed plant response rating: 0
[11]; [20]
  Redroot pigweed plant response rating: 0
[11]; Rate 250 g/ha, Postemergence
  Plant response rating (0 to 10; 0 is no effect, 10 is complete control), Redroot pigweed: 0
[11]; [21]
  Redroot pigweed plant response rating: 0
[12]; [22]
  Barnyardgrass plant response rating: 0
[12]; [23]
  Barnyardgrass plant response rating: 0
[12]; [24]
  Barnyardgrass plant response rating: 0
[12]; [25]
  Barnyardgrass plant response rating: 0
[13]; [17]
  Crabgrass plant response rating: 0
[13]; [26]
  Crabgrass plant response rating: 0
[13]; [18]
  Plant response rating, Crabgrass: 0
[13]; [19]
  Crabgrass plant response rating: 0
[13]; [27]
  Crabgrass plant response rating: 0
[13]; [20]
  Crabgrass plant response rating: 0
[13]; Rate 250 g/ha, Postemergence
  Plant response rating (0 to 10; 0 is no effect, 10 is complete control), Crabgrass: 0
[13]; [21]
  Crabgrass plant response rating: 0
[14]; [22]
  Rice plant response rating: 0
[14]; [23]
  Rice plant response rating: 0
[14]; [24]
  Rice plant response rating: 0
[14]; [25]
  Rice plant response rating: 0
[15]; [17]
  Cocklebur plant response rating: 0
[15]; [26]
  Cocklebur plant response rating: 0
[15]; [18]
  Plant response rating, Cocklebur: 0
[15]; [19]
  Cocklebur plant response rating: 0
[15]; [27]
  Cocklebur plant response rating: 0
[15]; [20]
  Cocklebur plant response rating: 0
[15]; Rate 250 g/ha, Postemergence
  Plant response rating (0 to 10; 0 is no effect, 10 is complete control), Cocklebur: 0
[15]; [21]
  Cocklebur plant response rating: 0
[16]; [17]
  Velvetleaf plant response rating: 0
[16]; [26]
  Velvetleaf plant response rating: 0
[16]; [18]
  Plant response rating, Velvetleaf: 0
[16]; [19]
  Velvetleaf plant response rating: 0
[16]; [27]
  Velvetleaf plant response rating: 0
[16]; [20]
  Velvetleaf plant response rating: 0
[16]; Rate 250 g/ha, Postemergence
  Plant response rating (0 to 10; 0 is no effect, 10 is complete control), Velvetleaf: 0
[16]; [21]
  Velvetleaf plant response rating: 0
